Experiment [1] deals with T1, cGMP-dependent protein kinase 2 (Homo sapiens) (UniProt Q13237).
T1 sequence (whole entry): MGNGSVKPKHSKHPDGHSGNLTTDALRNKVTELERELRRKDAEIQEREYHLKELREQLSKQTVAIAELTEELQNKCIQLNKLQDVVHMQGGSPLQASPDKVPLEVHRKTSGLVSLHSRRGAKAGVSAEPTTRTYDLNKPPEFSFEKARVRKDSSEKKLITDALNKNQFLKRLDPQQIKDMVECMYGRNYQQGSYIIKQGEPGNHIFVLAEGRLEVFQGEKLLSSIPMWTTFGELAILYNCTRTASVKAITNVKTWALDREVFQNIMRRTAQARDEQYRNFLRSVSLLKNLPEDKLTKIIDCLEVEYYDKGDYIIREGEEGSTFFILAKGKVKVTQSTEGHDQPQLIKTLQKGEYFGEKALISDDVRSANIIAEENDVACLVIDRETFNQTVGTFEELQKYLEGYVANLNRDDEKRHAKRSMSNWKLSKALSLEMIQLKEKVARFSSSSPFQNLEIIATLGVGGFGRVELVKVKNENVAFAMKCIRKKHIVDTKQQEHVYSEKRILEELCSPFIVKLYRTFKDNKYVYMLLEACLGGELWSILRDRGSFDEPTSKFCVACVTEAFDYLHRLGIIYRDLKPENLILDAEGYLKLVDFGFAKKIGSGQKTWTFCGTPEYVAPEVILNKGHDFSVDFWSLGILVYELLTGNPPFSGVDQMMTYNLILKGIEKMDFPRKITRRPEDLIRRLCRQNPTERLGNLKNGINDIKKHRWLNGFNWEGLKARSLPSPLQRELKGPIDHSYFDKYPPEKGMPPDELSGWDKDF
The experiment in a line: Residual activity of PRKG2 at 1 uM by microplate scintillation counting.

Experiment [2] deals with Tyrosine-protein kinase CSK (Homo sapiens) (UniProt P41240). The experiment in a line: Residual activity of CSK at 10 uM by microplate scintillation counting.
Experiment [3] addresses Casein kinase I isoform gamma-2 (Homo sapiens) (UniProt P78368). The experiment in a line: Residual activity of CK1gamma2 at 10 uM by microplate scintillation counting.
In experiment [4] the target is T2, Myotonin-protein kinase (Homo sapiens) (UniProt Q09013).
T2 sequence (whole entry): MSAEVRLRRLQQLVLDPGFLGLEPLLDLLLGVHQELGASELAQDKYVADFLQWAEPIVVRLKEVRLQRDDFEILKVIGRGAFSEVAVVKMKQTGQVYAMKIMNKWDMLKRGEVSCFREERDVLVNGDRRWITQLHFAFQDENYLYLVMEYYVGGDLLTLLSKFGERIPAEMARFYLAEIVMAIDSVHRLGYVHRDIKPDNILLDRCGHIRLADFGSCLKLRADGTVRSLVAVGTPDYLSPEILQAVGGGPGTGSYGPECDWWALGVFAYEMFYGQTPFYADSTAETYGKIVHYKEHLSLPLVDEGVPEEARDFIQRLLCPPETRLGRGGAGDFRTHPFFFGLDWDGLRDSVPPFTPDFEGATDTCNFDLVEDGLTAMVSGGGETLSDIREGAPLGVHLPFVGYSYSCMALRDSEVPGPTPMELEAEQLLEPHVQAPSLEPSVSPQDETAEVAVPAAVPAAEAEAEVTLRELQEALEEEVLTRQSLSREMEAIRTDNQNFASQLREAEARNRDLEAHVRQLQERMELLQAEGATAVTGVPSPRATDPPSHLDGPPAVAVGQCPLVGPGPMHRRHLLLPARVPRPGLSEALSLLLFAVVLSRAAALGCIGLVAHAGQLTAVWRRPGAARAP
The experiment in a line: Residual activity of DMPK at 1 uM by microplate scintillation counting.

Experiment [5] has as its target T3, Serine/threonine-protein kinase Sgk3 (Homo sapiens) (UniProt Q96BR1).
T3 sequence (whole entry): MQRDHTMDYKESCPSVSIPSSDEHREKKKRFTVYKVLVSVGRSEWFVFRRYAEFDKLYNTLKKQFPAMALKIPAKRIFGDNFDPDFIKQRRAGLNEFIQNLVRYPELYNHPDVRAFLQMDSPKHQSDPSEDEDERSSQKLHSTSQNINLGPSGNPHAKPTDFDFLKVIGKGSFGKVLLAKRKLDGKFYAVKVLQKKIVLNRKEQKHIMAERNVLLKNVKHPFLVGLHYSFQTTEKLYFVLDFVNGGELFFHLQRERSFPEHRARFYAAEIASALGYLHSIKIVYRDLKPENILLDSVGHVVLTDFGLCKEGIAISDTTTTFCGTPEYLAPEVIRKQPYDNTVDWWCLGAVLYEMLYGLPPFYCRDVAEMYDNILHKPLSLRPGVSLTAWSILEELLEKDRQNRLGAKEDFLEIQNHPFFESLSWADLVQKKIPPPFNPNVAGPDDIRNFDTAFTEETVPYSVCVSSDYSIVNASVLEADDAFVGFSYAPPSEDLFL
The experiment can be described thus: Residual activity of SGK3 at 0.1 uM by microplate scintillation counting.

The target of experiment [6] is T4, cGMP-dependent protein kinase 1 (Homo sapiens) (UniProt Q13976).
T4 sequence (whole entry): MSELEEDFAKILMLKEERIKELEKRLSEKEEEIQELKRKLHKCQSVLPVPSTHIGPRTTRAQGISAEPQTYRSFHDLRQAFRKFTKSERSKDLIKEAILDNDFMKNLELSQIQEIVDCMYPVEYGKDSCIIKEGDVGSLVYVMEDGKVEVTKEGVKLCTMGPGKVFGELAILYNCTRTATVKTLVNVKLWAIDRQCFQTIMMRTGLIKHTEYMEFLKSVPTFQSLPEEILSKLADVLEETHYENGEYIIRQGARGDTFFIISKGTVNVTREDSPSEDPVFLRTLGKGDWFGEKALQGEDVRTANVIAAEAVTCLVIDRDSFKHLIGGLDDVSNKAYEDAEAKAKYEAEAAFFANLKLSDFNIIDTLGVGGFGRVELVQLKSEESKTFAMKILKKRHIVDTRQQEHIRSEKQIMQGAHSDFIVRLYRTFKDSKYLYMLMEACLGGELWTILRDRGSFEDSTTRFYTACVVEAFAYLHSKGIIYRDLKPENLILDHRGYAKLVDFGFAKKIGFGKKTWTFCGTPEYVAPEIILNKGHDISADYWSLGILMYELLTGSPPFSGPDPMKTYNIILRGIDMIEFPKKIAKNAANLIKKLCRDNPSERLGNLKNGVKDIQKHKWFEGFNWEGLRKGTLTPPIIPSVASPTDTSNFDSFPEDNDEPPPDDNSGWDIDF
The experiment can be described thus: Residual activity of PRKG1 at 10 uM by microplate scintillation counting.

Experiment [7] addresses ALK tyrosine kinase receptor (Homo sapiens) (UniProt Q9UM73). The experiment can be described thus: Residual activity of ALK at 10 uM by microplate scintillation counting.

Each structure is given as a SMILES string.

The results in this text go back to ChEMBL document CHEMBL1152560, “Substituted 2-arylbenzothiazoles as kinase inhibitors: hit-to-lead optimization” (Bioorg Med Chem, 2009).

Chain of ALK tyrosine kinase receptor (Homo sapiens) (Q9UM73 19-1620 limits assumed): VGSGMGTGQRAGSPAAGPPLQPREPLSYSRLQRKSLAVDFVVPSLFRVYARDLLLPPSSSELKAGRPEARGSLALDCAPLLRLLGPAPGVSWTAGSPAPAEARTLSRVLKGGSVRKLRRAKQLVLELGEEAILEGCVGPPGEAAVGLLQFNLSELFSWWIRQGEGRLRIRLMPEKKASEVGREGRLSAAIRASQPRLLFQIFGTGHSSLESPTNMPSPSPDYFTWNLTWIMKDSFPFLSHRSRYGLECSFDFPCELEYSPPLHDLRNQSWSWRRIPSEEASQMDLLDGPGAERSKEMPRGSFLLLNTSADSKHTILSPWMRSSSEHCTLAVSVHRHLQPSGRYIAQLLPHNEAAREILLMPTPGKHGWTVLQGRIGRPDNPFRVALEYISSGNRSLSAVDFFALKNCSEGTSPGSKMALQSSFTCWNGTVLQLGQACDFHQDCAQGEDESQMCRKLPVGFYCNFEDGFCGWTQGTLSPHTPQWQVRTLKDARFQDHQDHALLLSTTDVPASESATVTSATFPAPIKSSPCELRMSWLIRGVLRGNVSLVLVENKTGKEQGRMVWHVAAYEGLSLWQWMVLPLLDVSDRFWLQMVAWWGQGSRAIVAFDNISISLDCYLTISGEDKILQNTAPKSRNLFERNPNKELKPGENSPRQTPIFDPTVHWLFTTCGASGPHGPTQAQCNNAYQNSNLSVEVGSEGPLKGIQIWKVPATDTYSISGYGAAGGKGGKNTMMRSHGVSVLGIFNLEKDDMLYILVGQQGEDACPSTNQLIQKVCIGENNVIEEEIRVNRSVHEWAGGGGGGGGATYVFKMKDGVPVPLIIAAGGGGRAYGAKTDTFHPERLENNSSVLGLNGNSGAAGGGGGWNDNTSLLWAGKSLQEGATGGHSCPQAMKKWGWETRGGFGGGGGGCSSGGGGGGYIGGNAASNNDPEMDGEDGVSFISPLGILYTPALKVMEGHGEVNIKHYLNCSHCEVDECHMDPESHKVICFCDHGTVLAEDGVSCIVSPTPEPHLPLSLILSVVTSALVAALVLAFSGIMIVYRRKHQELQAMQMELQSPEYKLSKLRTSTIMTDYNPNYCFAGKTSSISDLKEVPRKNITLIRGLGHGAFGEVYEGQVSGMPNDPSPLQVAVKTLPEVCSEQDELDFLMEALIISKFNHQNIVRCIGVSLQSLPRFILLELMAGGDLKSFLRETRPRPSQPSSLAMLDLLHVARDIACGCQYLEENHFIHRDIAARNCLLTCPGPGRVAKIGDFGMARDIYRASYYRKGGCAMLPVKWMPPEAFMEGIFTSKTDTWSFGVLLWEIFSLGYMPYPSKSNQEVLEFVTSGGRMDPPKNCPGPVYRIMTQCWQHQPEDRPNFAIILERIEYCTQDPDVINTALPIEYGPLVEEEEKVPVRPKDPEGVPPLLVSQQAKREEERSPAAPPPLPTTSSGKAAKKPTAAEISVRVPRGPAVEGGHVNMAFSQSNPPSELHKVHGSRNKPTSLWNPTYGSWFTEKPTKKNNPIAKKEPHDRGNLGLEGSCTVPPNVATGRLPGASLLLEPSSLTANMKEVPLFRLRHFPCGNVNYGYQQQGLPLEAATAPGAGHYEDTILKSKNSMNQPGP
Chain of Casein kinase I isoform gamma-2 (Homo sapiens) (P78368 whole entry, looked up, canonical isoform): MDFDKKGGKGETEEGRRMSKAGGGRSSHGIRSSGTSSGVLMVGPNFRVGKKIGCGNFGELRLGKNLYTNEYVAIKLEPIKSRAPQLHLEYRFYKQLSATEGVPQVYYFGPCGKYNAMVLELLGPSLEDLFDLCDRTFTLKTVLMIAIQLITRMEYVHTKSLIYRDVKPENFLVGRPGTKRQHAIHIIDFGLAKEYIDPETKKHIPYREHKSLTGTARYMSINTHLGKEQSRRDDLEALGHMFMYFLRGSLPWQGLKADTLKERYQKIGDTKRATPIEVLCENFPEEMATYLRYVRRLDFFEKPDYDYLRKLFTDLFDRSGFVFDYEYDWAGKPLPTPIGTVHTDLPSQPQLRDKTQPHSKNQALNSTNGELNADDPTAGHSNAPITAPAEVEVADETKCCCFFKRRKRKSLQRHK
Chain of Tyrosine-protein kinase CSK (Homo sapiens) (P41240 2-450 limits assumed): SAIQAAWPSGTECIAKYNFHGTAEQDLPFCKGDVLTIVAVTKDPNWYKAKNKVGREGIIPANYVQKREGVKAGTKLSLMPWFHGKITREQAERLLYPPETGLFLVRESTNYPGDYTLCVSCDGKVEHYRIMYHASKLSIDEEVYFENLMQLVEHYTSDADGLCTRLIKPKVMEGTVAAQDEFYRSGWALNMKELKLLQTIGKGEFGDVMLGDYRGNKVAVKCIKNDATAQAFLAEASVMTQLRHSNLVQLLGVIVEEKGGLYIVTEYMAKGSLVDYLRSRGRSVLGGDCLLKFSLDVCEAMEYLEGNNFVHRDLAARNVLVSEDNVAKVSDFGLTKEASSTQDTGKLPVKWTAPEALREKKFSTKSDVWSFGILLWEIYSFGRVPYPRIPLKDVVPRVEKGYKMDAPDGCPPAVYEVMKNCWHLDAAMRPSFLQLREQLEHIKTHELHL

In the case of `COc1cc2c(Oc3ccc(-c4nc5ccccc5s4)cc3F)ncnc2cc1OCCCN1CCN(C)CC1`, the residual activity in experiment [1] amounted to 85%; in experiment [2], 3%; in experiment [3] it was 226%; in experiment [4] it was 121%; in experiment [5], 104%; in experiment [6] it was 38%. The residual activity in experiment [7] came to 180%.
Regarding `COc1cc2c(Oc3ccc(-c4nc5ccccc5s4)cc3)ncnc2cc1OCCCN1CCN(C)CC1`, the residual activity in experiment [1] was determined as 96%; in experiment [2], 18%; in experiment [3], 217%; in experiment [4], 106%; in experiment [5], 91%; in experiment [6] it was 50%. Besides, the residual activity in experiment [7] stood at 329%.
Turning to `COc1cc2c(Oc3ccc(-c4nc5ccccc5s4)cc3)ncnc2cc1OCCCN1CCCC1`, the residual activity in experiment [1] was 84%; in experiment [2], 17%; in experiment [3] it was 198%; in experiment [4] it was 104%; in experiment [5] it was 114%; in experiment [6], 57%. In experiment [7], the residual activity stood at 414%.

As usually defined, the residual activity is the signal under treatment as a percentage of the control signal.
